Source: patent publication US20260078130A1, “NAMPT MODULATORS, PREPARATIONS, AND USES THEREOF” (SIRONAX LTD., priority 2022, published 2026)
Read-outs that look alike come from different tables or passages of the source.

Target: T1, human enzyme NAMPT (full length) (Homo sapiens, UniProt P43490)
T1 construct: human enzyme NAMPT (full length)
Test: NMN fluorescence biochemical assay (stimulation of NMN synthesis by NAMPT)
Conditions: for EC50: concentration giving half-maximal activation, read-out: Enzymatic EC50; for Enzymatic Emax: fold change of maximal activation compared to DMSO
Method: Certain compounds described herein were assayed for their ability to stimulate the synthesis of nicotinamide mononucleotide (NMN) by human enzyme NAMPT (full length). The enzymatic assay was performed in a 384-well plate using a TMD buffer (50 mM Tris-HCl, 10 mM MgCl2, 2 mM DTT, pH 7.5). Purified NAMPT (100 nM) was pre-incubated with 0.2 μL. DMSO solution of the test compound (with a series of concentrations) in 10 μL TMD buffer for 15 min at 37° C. The reaction was initiated by adding 10 μL solution of NAM (50 μM), PRPP (100 μM), and ATP (4 mM) in TMD buffer. After 1 h of incubation at 37 T, an aliquot (20 μL) of the NMN-containing sample was sequentially mixed with 5 μL of 20% acetophenone (in DMSO) and 5 μL of 2M KOH. The mixture was placed on ice for 10 min. Next, 22.5 μL of 100% formic acid was added to each sample, vortexed, and then incubated at 37° C. for 20 min. Fluorescence (Ex/Em=382/445 nm) was measured using an Envision plate reader. The potency measurements for the test compounds were quantified and represented as EC50 (concentration of a compound that gives half-maximal activation) and Emax (fold change of a compound's maximal activation compared to DMSO).

[1] = NMN synthesis by purified human NAMPT (100 nM)
[2] = NMN fluorescence assay, purified human NAMPT 100 nM

T1 sequence (P43490 whole entry): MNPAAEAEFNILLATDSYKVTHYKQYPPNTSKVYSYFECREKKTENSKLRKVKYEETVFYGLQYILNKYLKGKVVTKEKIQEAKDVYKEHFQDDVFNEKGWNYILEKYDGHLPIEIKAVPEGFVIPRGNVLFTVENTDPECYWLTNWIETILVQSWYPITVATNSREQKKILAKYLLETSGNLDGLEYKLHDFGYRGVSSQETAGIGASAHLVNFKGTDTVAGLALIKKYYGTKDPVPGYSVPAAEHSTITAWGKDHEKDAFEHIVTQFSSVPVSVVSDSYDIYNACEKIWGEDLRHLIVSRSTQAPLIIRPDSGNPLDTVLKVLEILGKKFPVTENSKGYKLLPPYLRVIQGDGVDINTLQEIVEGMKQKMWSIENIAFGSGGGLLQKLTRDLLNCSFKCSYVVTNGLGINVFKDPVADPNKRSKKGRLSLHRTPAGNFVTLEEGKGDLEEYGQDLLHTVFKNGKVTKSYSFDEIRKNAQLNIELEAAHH

Row | SMILES | EC50 [1] [µM] | Enzymatic Emax | EC50 [2] [µM]
1 | Nc1nnc2cc(CN3C(=O)c4ccccc4C3Cc3ncccc3Br)ccn12 (stereo not shown) [Compound 269, 2-((3-amino-[1,2,4]triazolo[4,3-a]pyridin-7-yl)methyl)-3-((3-bromopyridin-2-yl)methyl) isoindolin-1-one] | ≥ 5 | B (3≥B>2) | –
2 | O=C1c2ccccc2C(Cc2cccc3ncoc23)N1Cc1ccc2[nH]c(=O)oc2c1 (stereo not shown) [Compound 218, 6-((1-(benzo[d]oxazol-7-ylmethyl)-3-oxoisoindolin-2-yl)methyl)benzo[d]oxazol-2(3H)-one] | 0.5 to 5 | A (A>3) | –
3 | O=C1c2ccccc2C(Cc2ncccc2Br)N1Cc1ccc(O)cn1 (stereo not shown) [Compound 267, 3-((3-bromopyridin-2-yl)methyl)-2-((5-hydroxypyridin-2-yl)methyl)isoindolin-1-one] | 0.5 to 5 | A (A>3) | –
4 | Cc1n[nH]cc1/C=C(/F)CN1C(=O)c2ccccc2C1Cc1c(Cl)cnn1C (stereo not shown) [Compound 504, (E)-3-((4-chloro-1-methyl-1H-pyrazol-5-yl)methyl)-2-(2-fluoro-3-(3-methyl-1H-pyrazol-4-yl)allyl)isoindolin-1-one] | – | B (3≥B>2) | 0.5 to 5
5 | O=C1c2ccccc2CCN1Cc1ccc2[nH]c(=O)oc2c1 [Compound 8, 6-((1-oxo-3,4-dihydroisoquinolin-2(1H)-yl)methyl)benzo[d]oxazol-2(3H)-one] | ≥ 5 | B (3≥B>2) | –
6 | O=C1c2ccccc2C(Cc2ncccc2Br)N1Cc1ccc2[nH]c(=O)ncc2c1 (stereo not shown) [Compound 348, 6-((1-((3-bromopyridin-2-yl)methyl)-3-oxoisoindolin-2-yl)methyl)quinazolin-2(1H)-one] | – | C (2≥C) | 0.5 to 5
7 | O=C1c2ccccc2C(C(F)(F)c2ccccc2)N1Cc1ccc2[nH]c(=O)oc2c1 (stereo not shown) [Compound 306, 6-((1-(difluoro(phenyl)methyl)-3-oxoisoindolin-2-yl)methyl)benzo[d]oxazol-2(3H)-one] | ≥ 5 | C (2≥C) | –
8 | Cn1ncc(Cl)c1CC1c2ccccc2C(=O)N1Cc1ccc2[nH]c(=S)oc2c1 (stereo not shown) [Compound 626, 3-((4-chloro-1-methyl-1H-pyrazol-5-yl)methyl)-2-((2-thioxo-2,3-dihydrobenzo[d]oxazol-6-yl)methyl)isoindolin-1-one] | – | – | ≥ 5
9 | CC1c2ccccc2C(=O)N1Cc1cc(F)c2[nH]nnc2c1 (stereo not shown) [Compound 290, 2-((7-fluoro-1H-benzo[d][1,2,3]triazol-5-yl)methyl)-3-methylisoindolin-1-one] | ≥ 5 | C (2≥C) | –
10 | COc1cccc(CC2c3ccccc3C(=O)N2Cc2ccc3[nH]c(=O)oc3c2)c1 (stereo not shown) [Compound 180, 6-((1-(3-methoxybenzyl)-3-oxoisoindolin-2-yl)methyl)benzo[d]oxazol-2(3H)-one] | 0.5 to 5 | B (3≥B>2) | –
11 | O=C1c2ccccc2C(Cc2ncccc2Br)N1CCNc1c[nH]nn1 (stereo not shown) [Compound 456, 2-(2-((1H-1,2,3-triazol-4-yl)amino)ethyl)-3-((3-bromopyridin-2-yl)methyl)isoindolin-1-one] | – | C (2≥C) | ≥ 5
12 | Cc1cc(F)c2c(c1)C(Cc1c(Cl)cnn1C)N(CC1CC3(CNC(=O)O3)C1)C2=O (stereo not shown) [Compound 506, 2-((1-((4-chloro-1-methyl-1H-pyrazol-5-yl)methyl)-4-fluoro-6-methyl-3-oxoisoindolin-2-yl)methyl)-5-oxa-7-azaspiro[3.4]octan-6-one] | – | B (3≥B>2) | < 0.5
13 | Cn1ncc(Cl)c1CC1(C)c2ccccc2C(=O)N1CC1CC2(CNC(=O)O2)C1 (stereo not shown) [Compound 445, 2-((1-((4-chloro-1-methyl-1H-pyrazol-5-yl)methyl)-1-methyl-3-oxoisoindolin-2-yl)methyl)-5-oxa-7-azaspiro[3.4]octan-6-one] | – | B (3≥B>2) | ≥ 5

More lines, now with the values ahead:

Row | EC50 [1] [µM] | Enzymatic Emax | EC50 [2] [µM] | SMILES
14 | 0.5 to 5 | B (3≥B>2) | – | O=C1c2ccccc2C(Cc2ccc(F)cn2)N1Cc1ccc2[nH]c(=O)oc2c1 (stereo not shown) [Compound 194, 6-((1-((5-fluoropyridin-2-yl)methyl)-3-oxoisoindolin-2-yl)methyl)benzo[d]oxazol-2(3H)-one]
15 | 0.5 to 5 | B (3≥B>2) | – | O=C1c2ccccc2C(Cc2ncccc2Br)N1Cc1ccc2[nH]c(=S)oc2c1 (stereo not shown) [Compound 287, 3-((3-bromopyridin-2-yl)methyl)-2-((2-thioxo-2,3-dihydrobenzo[d]oxazol-6-yl)methyl) isoindolin-1-one]
16 | ≥ 5 | B (3≥B>2) | – | O=c1[nH]n(Cc2ccc(O)cc2)c2ccccc12 [Compound 13, 1-(4-hydroxybenzyl)-1,2-dihydro-3H-indazol-3-one]
17 | – | C (2≥C) | ≥ 5 | Cn1ncc(Cl)c1CC1c2ccccc2C(=O)N1[C@H]1C[C@H](c2c[nH]c(=O)o2)C1 (stereo partly shown) [Compound 455, 5-((1r,3r)-3-(1-((4-chloro-1-methyl-1H-pyrazol-5-yl)methyl)-3-oxoisoindolin-2-yl)cyclobutyl)oxazol-2(3H)-one]
18 | 0.5 to 5 | B (3≥B>2) | – | COc1nc2cc(CN3C(=O)c4ccccc4C3Cc3ncccc3Br)ccc2[nH]1 (stereo not shown) [Compound 254, 3-((3-bromopyridin-2-yl)methyl)-2-((2-methoxy-1H-benzo[d]imidazol-5-yl)methyl) isoindolin-1-one]
19 | 0.5 to 5 | B (3≥B>2) | – | CC(C)(C)c1ccc2c(c1)C(=O)N(Cc1ccc(O)cc1)C2=O [Compound 18, 5-(tert-butyl)-2-(4-hydroxybenzyl)isoindoline-1,3-dione]
20 | – | C (2≥C) | 0.5 to 5 | Cn1cc(C#CCN2C(=O)c3ccccc3C2Cc2c(Cl)cnn2C)cn1 (stereo not shown) [Compound 501, 3-((4-chloro-1-methyl-1H-pyrazol-5-yl)methyl)-2-(3-(1-methyl-1H-pyrazol-4-yl)prop-2-yn-1-yl)isoindolin-1-one]
21 | – | C (2≥C) | ≥ 5 | Cn1ncc(Cl)c1CC1c2ccccc2C(=O)N1Cc1ccc(F)cc1 (stereo not shown) [Compound 572, 3-((4-chloro-1-methyl-1H-pyrazol-5-yl)methyl)-2-(4-fluorobenzyl)isoindolin-1-one]
22 | ≥ 5 | A (A>3) | – | Cc1ccc2c(c1)C(=O)N(Cc1ccc(O)cc1)C2 [Compound 32, 2-(4-hydroxybenzyl)-6-methylisoindolin-1-one]
23 | 0.5 to 5 | A (A>3) | – | O=C1c2ccccc2C(Cc2ccc3ncoc3c2)N1Cc1ccc2[nH]c(=O)oc2c1 (stereo not shown) [Compound 216, 6-((1-(benzo[d]oxazol-6-ylmethyl)-3-oxoisoindolin-2-yl)methyl)benzo[d]oxazol-2(3H)-one]
24 | – | B (3≥B>2) | 0.5 to 5 | Cc1onc(C#N)c1C(O)C1c2ccccc2C(=O)N1Cc1ccc2[nH]nnc2c1 (stereo not shown) [Compound 374, 4-((2-((1H-benzo[d][1,2,3]triazol-5-yl)methyl)-3-oxoisoindolin-1-yl)(hydroxy)methyl)-5-methylisoxazole-3-carbonitrile]
25 | ≥ 5 | B (3≥B>2) | – | O=C1COc2ccccc2N1Cc1ccc(O)cc1 [Compound 6, 4-(4-hydroxybenzyl)-2H-benzo[b][1,4]oxazin-3(4H)-one]
26 | ≥ 5 | A (A>3) | – | NC(=O)c1ccc(CC2c3ccccc3C(=O)N2Cc2ccc3[nH]c(=O)oc3c2)cc1 (stereo not shown) [Compound 253, 4-((3-oxo-2-((2-oxo-2,3-dihydrobenzo[d]oxazol-6-yl)methyl)isoindolin-1-yl)methyl) benzamide]
27 | – | B (3≥B>2) | 0.5 to 5 | Cc1[nH]nnc1/C=C/CN1C(=O)c2ccccc2C1Cc1ncccc1Br (stereo not shown) [Compound 386, (E)-3-((3-bromopyridin-2-yl)methyl)-2-(3-(5-methyl-1H-1,2,3-triazol-4-yl)allyl)isoindolin-1-one]
28 | – | C (2≥C) | ≥ 5 | Cn1ncc(Cl)c1CC1c2ccccc2C(=O)N1C/C=C/c1nn[nH]c1Cl (stereo not shown) [Compound 525, (E)-3-((4-chloro-1-methyl-1H-pyrazol-5-yl)methyl)-2-(3-(5-chloro-1H-1,2,3-triazol-4-yl)allyl)isoindolin-1-one]
29 | – | B (3≥B>2) | 0.5 to 5 | O=C1c2ccccc2C(Cc2nn(C(CO)CO)cc2Cl)N1Cc1ccc2[nH]nnc2c1 (stereo not shown) [Compound 363, 2-((1H-benzo[d][1,2,3]triazol-5-yl)methyl)-3-((4-chloro-1-(1,3-dihydroxypropan-2-yl)-1H-pyrazol-3-yl)methyl)isoindolin-1-one]
30 | 0.5 to 5 | B (3≥B>2) | – | O=C1c2cccc(Nc3ccccc3)c2C(=O)N1Cc1ccc(O)cc1 [Compound 17, 2-(4-hydroxybenzyl)-4-(phenylamino)isoindoline-1,3-dione]
31 | – | C (2≥C) | ≥ 5 | Cn1ncc(Cl)c1CC1c2ccccc2C(=O)N1CC1CC2(CN=C(NC#N)O2)C1 (stereo not shown) [Compound 520, N-(2-((1-((4-chloro-1-methyl-1H-pyrazol-5-yl)methyl)-3-oxoisoindolin-2-yl)methyl)-5-oxa-7-azaspiro[3.4]oct-6-en-6-yl)cyanamide]
